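The compound was tested at five concentrations on cells cultured in 96-well plates, with a 48-hour exposure period. At the TGI there is no net growth.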
Experiments:
Assay in all cases: NCI tumour cell line growth inhibition, 48 h
[1] = test system: SF-539 CNS
[2] = test system: NCI-H23 lung
[3] = test system: NCI-H226 lung
[4] = test system: HOP-62 NSCLC
[5] = test system: SK-MEL-5 melanoma
[6] = test system: KM12 colon
[7] = test system: K-562 leukemia
[8] = test system: IGROV1 ovarian
[9] = test system: SN12C renal
[10] = test system: SNB-78 CNS
[11] = test system: DMS 273 small cell lung

Work on `Cc1c(C(=O)NNc2ccccc2)n2c(=S)[nH]nc2c2ccccc12` yielded a TGI [1] of over 100 µM, a TGI [2] of over 100 µM and a TGI [3] of over 100 µM. It also gave a TGI [4] of over 100 µM, a TGI [5] of over 100 µM and a TGI [6] of over 100 µM. The TGI [7] was over 100 µM, the TGI [8] was over 100 µM and the TGI [9] was over 100 µM.
In the case of `O=C1C=CC(=O)c2c(O)c(N3CCC[C@@H]3CO)c(Cl)c(O)c21`, the TGI [1] is reported as 3.42 µM, the TGI [2] is reported as 3.55 µM and the TGI [3] is reported as 3.16 µM. The TGI [4] was 3.06 µM, the TGI [5] was 2.28 µM and the TGI [6] was 3.16 µM. The TGI [7] was 2.22 µM, the TGI [8] was 3.27 µM and the TGI [9] was 3.25 µM.
With `COc1ccc([C@]23CCC4(OCC(C)(C)CO4)[C@H]4CON(O[C@H](O[C@@H]5CCCCC5C(C)(C)c5ccccc5)C2)[C@@H]43)cc1OC` (stereo not given in full) the TGI [1] was 76.5 µM, the TGI [2] was over 100 µM and the TGI [3] was over 100 µM. It also gave a TGI [4] of over 100 µM, a TGI [5] of 45.4 µM and a TGI [6] of over 100 µM. It also gave a TGI [7] of over 100 µM, a TGI [8] of over 100 µM and a TGI [9] of over 100 µM.
With `C[C@H]1[C@H](C)CC[C@]2(C(=O)OC3OC(CO)C(O)C(O)C3O)CC[C@]3(C)C(=CC[C@@H]4[C@@]5(C)C[C@@H](O)[C@@H]6OC(=O)c7cc(O)c(O)c(O)c7-c7c(cc(O)c(O)c7O)C(=O)OC[C@@]6(CO)[C@@H]5CC[C@]43C)[C@H]12` (stereo not given in full) the TGI [1] was over 100 µM, the TGI [2] was over 100 µM and the TGI [3] was over 100 µM. It also gave a TGI [4] of over 100 µM, a TGI [5] of over 100 µM and a TGI [6] of over 100 µM. For the same molecule, the TGI [7] was 78.5 µM, the TGI [8] was over 100 µM and the TGI [9] was over 100 µM.
In the case of `CC1=C(C(=O)OCCO[N+](=O)[O-])C(c2ccccc2[N+](=O)[O-])C(C(=O)OC(C)C)=C(C)N1` (stereo not given), the TGI [1] is reported as 33.2 µM, the TGI [2] is reported as 48.5 µM and the TGI [3] is reported as 35 µM. The TGI [4] was 33.8 µM, the TGI [5] was 26.8 µM and the TGI [6] was 28.1 µM. The TGI [7] was over 100 µM, the TGI [8] was 34.9 µM and the TGI [9] was 34.9 µM.
With `CN1c2ccccc2C2=C(c3ccccc3)CC[C@@H](C(=O)N3C4CC5CC[C@@]4(CS3(=O)=O)C5(C)C)[C@@H]21` (stereo not given in full) the TGI [1] was over 100 µM, the TGI [2] was over 100 µM and the TGI [3] was over 100 µM. For the same molecule, the TGI [4] was over 100 µM, the TGI [5] was over 100 µM and the TGI [6] was over 100 µM. The TGI [7] was over 100 µM, the TGI [8] was over 100 µM and the TGI [9] was over 100 µM.
Molecule `CC1=C(C)SC(=C2Sc3c(n(C)c(=O)n(C)c3=O)S2)S1` has a TGI [1] of 26.8 µM, a TGI [2] of over 100 µM and a TGI [3] of 48.5 µM. It also gave a TGI [4] of 41.3 µM, a TGI [5] of over 100 µM and a TGI [6] of over 100 µM. For the same molecule, the TGI [7] was over 100 µM, the TGI [8] was over 100 µM and the TGI [9] was over 100 µM.
Work on `CC1(C)OCC(C2OC(C)(C)OC2[C@H]2O[C@@]3(O)[C@H]4[C@H](C=CC[C@@H]42)[C@@H](OCc2ccccc2)[C@H](OCc2ccccc2)[C@H]3OCc2ccccc2)O1` (stereo not given in full) yielded a TGI [1] of over 100 µM, a TGI [2] of over 100 µM and a TGI [3] of over 100 µM. The TGI [4] was over 100 µM, the TGI [5] was over 100 µM and the TGI [6] was over 100 µM. The TGI [7] was over 100 µM, the TGI [8] was over 100 µM and the TGI [9] was over 100 µM.
`O=C1Nc2cc(F)ccc2C1=O` gave a TGI [1] of over 100 µM, a TGI [10] of over 100 µM and a TGI [2] of over 100 µM. It also gave a TGI [3] of over 100 µM, a TGI [4] of over 100 µM and a TGI [5] of over 100 µM. It also gave a TGI [6] of over 100 µM, a TGI [7] of over 100 µM and a TGI [8] of over 100 µM. It also gave a TGI [9] of over 100 µM and a TGI [11] of over 100 µM.
In the case of `Cc1cc(-c2cc(C(C)(C)C)c(O)c(C(C)(C)C)c2)c(C)cc1-c1cc(C(C)(C)C)c(O)c(C(C)(C)C)c1`, the TGI [1] is reported as over 100 µM, the TGI [2] is reported as over 100 µM and the TGI [3] is reported as over 100 µM. The TGI [4] was over 100 µM, the TGI [5] was over 100 µM and the TGI [6] was over 100 µM. For the same molecule, the TGI [7] was over 100 µM, the TGI [8] was over 100 µM and the TGI [9] was over 100 µM.
`CC(C)(C)c1ccnc(N=C2N=C(Nc3cc(C(C)(C)C)ccn3)c3ccccc32)c1` was tested, and the TGI [1] was over 100 µM, the TGI [10] was 75 µM and the TGI [2] was 94.6 µM. The TGI [3] was over 100 µM, the TGI [4] was 75.5 µM and the TGI [6] was over 100 µM. It also gave a TGI [7] of over 100 µM, a TGI [8] of 72.1 µM and a TGI [9] of over 100 µM.
`COc1cc2c(c(OC)c1)[C@H](C)N(Cc1ccccc1)C(C)C2` (stereo not given in full) gave a TGI [1] of 48.4 µM, a TGI [2] of over 100 µM and a TGI [3] of 84.6 µM. The TGI [4] was over 100 µM, the TGI [5] was 90.3 µM and the TGI [6] was over 100 µM. The TGI [7] was over 100 µM, the TGI [8] was over 100 µM and the TGI [9] was over 100 µM.
In the case of `N#C/C(C(=O)NCc1ccccc1)=C(/N)N1CCCC1`, the TGI [1] is reported as over 100 µM, the TGI [2] is reported as over 100 µM and the TGI [3] is reported as over 100 µM. It also gave a TGI [4] of over 100 µM, a TGI [5] of over 100 µM and a TGI [6] of over 100 µM. For the same molecule, the TGI [7] was over 100 µM, the TGI [8] was over 100 µM and the TGI [9] was over 100 µM.
`CCc1nc2c(c(N(C)C)c1C(=O)OC)CCc1ccccc1-2` was tested, and the TGI [1] was over 100 µM, the TGI [2] was over 100 µM and the TGI [3] was 79 µM. It also gave a TGI [4] of 63.5 µM, a TGI [5] of 32.9 µM and a TGI [6] of over 100 µM. It also gave a TGI [7] of 77.3 µM, a TGI [8] of over 100 µM and a TGI [9] of over 100 µM.
`CCC1(CC)C(=O)N(C(=O)c2cc(OC)c(OC)c(OC)c2)N(C(=O)c2cc(OC)c(OC)c(OC)c2)C1=O` was tested, and the TGI [1] was over 50 µM, the TGI [2] was over 50 µM and the TGI [3] was over 50 µM. It also gave a TGI [4] of over 50 µM, a TGI [5] of over 50 µM and a TGI [6] of over 50 µM. It also gave a TGI [7] of over 50 µM, a TGI [8] of over 50 µM and a TGI [9] of over 50 µM.
With `C[As+](C)(c1ccc(Br)c([N+](=O)[O-])c1)c1ccc(Br)c([N+](=O)[O-])c1.O=[N+]([O-])O` the TGI [1] was over 100 µM, the TGI [2] was over 100 µM and the TGI [3] was over 100 µM. For the same molecule, the TGI [4] was over 100 µM, the TGI [5] was 22 µM and the TGI [6] was over 100 µM. For the same molecule, the TGI [7] was over 100 µM, the TGI [8] was over 100 µM and the TGI [9] was over 100 µM.
Molecule `NCCCCNCCCN1CCOC1=O` has a TGI [1] of over 100 µM, a TGI [2] of over 100 µM and a TGI [3] of over 100 µM. For the same molecule, the TGI [4] was over 100 µM, the TGI [5] was over 100 µM and the TGI [6] was over 100 µM. For the same molecule, the TGI [7] was over 100 µM, the TGI [8] was over 100 µM and the TGI [9] was over 100 µM.

Source: PubChem BioAssay (NCI)
